Values after ≈ are worked out from the molar mass of the structure shown.
Settings: buffer; pH 7.4; 200.0 µM

| Structure (SMILES) | solubility kinetic |
| --- | --- |
| COC(=O)c1c(NC(=O)c2ccoc2C)sc(C)c1C | < 0.6 µg/mL |
| CCCC(=O)NNC(=O)CCC(=O)Nc1ccccc1Cl | > 46.8 µg/mL |
| COc1ccc(CCNC(=O)c2ccc3nc[nH]c3c2)cc1 | > 44.3 µg/mL |
| COc1ccccc1N1CCN(CC(=O)NCc2ccc(Cl)cc2)CC1 | > 56.1 µg/mL |
| N/C(=N\OC(=O)c1ccc(Cl)c(Cl)c1)c1cccc(CSc2ccccn2)c1 | 0.9 µg/mL (≈ 2.08 µM) |
| Cc1ccc(CN2C(=O)CSC(C)C2=O)cc1 (stereo not drawn) | > 37.4 µg/mL |
| COC(=O)c1cccc(NC(=O)c2ccc3c(c2)C(=O)N(C(C)(C)C)C3=O)c1 | < 0.4 µg/mL |
| O=C(Nc1ccc2c(c1)C(=O)OC2)c1ccc(Cl)cc1Cl | 3 µg/mL (≈ 9.31 µM) |
| N#Cc1ccccc1NC(=O)COc1ccc2c(c1)OCO2 | 17.1 µg/mL (≈ 57.7 µM) |
| CC1CCCN(C(=O)c2cc(-c3cccs3)nc3ccccc23)C1 (stereo not drawn) | 17.2 µg/mL (≈ 51.1 µM) |
| Cc1c(Cl)cccc1NC(=O)CNC(=O)c1ccco1 | 38.2 µg/mL (≈ 130 µM) |
| Cl.c1ccc2c(c1)nc(N1CCCCC1)c1ccccc12 | 1.8 µg/mL |
| O=c1[nH]c(O)c(C=Nc2cc(F)cc(F)c2)c(=O)[nH]1 | 2.8 µg/mL (≈ 10.5 µM) |
| CC(C)CCNC(=O)c1cc2c(=O)[nH]c3ccccc3c2s1 | < 0.3 µg/mL |
| CCOc1ccccc1NC(=O)Nc1ccon1 | 15.5 µg/mL (≈ 62.7 µM) |
| Cc1c(C(=O)N/N=C/c2ccoc2)cccc1[N+](=O)[O-] | > 41 µg/mL |
| Cc1ccc(OCC(=O)Nc2ccc3oc(=O)ccc3c2)cc1C | < 0.7 µg/mL |
| O=C(Nc1cccc(-c2nc3ccccc3o2)c1)c1cccnc1 | 0.3 µg/mL (≈ 0.951 µM) |
| CCC(=O)NCc1c(C)c(C)n(Cc2ccccc2)c1-n1cccc1 | 4.6 µg/mL (≈ 13.7 µM) |
| O=C(NC(=S)Nc1cccc(O)c1)C1CCCCC1 | > 41.8 µg/mL |
| O=c1[nH]c(=O)n([C@H]2C[C@H](O)[C@@H](CO)O2)cc1C(F)(F)F | > 44.4 µg/mL |
| CC(Oc1ccc(Br)cc1Br)C(=O)Nc1cccnc1Cl (stereo not drawn) | < 0.5 µg/mL |
| CCCCC(=O)Nc1cc([N+](=O)[O-])ccc1F | 31.8 µg/mL (≈ 132 µM) |
| Cc1c(C(=O)Nc2ccc3c(c2)OCCO3)cnn1C | > 41 µg/mL |

| Structure (SMILES) | solubility kinetic |
| --- | --- |
| COC(=O)c1c(C)oc(C)c1S(=O)(=O)N1CCCC1 | 38.3 µg/mL (≈ 133 µM) |
| Cc1cc(=O)n2cccc(O)c2n1.Cl | 21.7 µg/mL |
| COCCn1c(C)cc(C(=O)COc2cccnc2[N+](=O)[O-])c1C | 49.7 µg/mL (≈ 149 µM) |
| CCC1CCCCN1C(=O)COC(=O)COc1ccc(Br)cc1 (stereo not drawn) | > 57.6 µg/mL |
| Cc1ccc2c(=O)c(CN3CCCCCC3)c(C)[nH]c2c1C | 40.6 µg/mL (≈ 136 µM) |
| Cn1ccnc1Sc1ccccc1[N+](=O)[O-] | 24.1 µg/mL (≈ 102 µM) |
| Cc1cc(SCc2ccc(C(F)(F)F)cc2)nc(=O)[nH]1 | 7.5 µg/mL (≈ 25 µM) |
| CCN(C(=O)CN1C(=O)c2ccc([N+](=O)[O-])cc2C1=O)C1CCCCC1 | > 53.9 µg/mL |
| COc1cc(C(=O)OCC(=O)N2CCCCCC2)c([N+](=O)[O-])cc1OC | > 55 µg/mL |
| CC(C)[C@H](NS(=O)(=O)c1cccc(C(F)(F)F)c1)C(=O)OCC(=O)NC(=O)NCc1ccco1 | 13.4 µg/mL (≈ 26.5 µM) |
| COC(=O)c1ccc(NC(=O)CNc2ccccc2)cc1 | 28.3 µg/mL (≈ 99.5 µM) |
| CC(=O)Nc1nc(CC(C)C)cc(-c2ccccc2)c1C#N | > 44 µg/mL |
| CCC1CCCCN1C(=O)c1cc(S(=O)(=O)N2CCOCC2)ccc1C (stereo not drawn) | > 57.1 µg/mL |
| O=[N+]([O-])c1cccc(Nc2c([N+](=O)[O-])ccc3nonc23)c1 | < 0.1 µg/mL |
| CC1CCN(C(=S)NC(=O)c2ccc(C(C)(C)C)cc2)CC1 | 3.1 µg/mL (≈ 9.73 µM) |
| CC(C)CNC(=O)C(=O)NCCCN1CCOCC1 | > 40.7 µg/mL |
| Cn1cc(C(=O)C(=O)N2CCOCC2)c2ccccc21 | > 40.8 µg/mL |
| COc1ccc(C(=O)/C=C/Nc2ccc(S(N)(=O)=O)cc2)cc1OC | 7.9 µg/mL (≈ 21.8 µM) |
| O=C(Nc1cccnc1)c1ccc(C(=O)Nc2cccnc2)cc1 | 0.8 µg/mL (≈ 2.51 µM) |
| CC(C)CC1NC(=O)N(CC(=O)NC2CCCc3ccccc32)C1=O (stereo not drawn) | 45.7 µg/mL (≈ 133 µM) |
| Cc1cccc(OCC(=O)OC(C)CN2CCCCC2)c1.Cl (stereo not drawn) | > 49.2 µg/mL |
| CC(=O)N1CCN(Cc2nc(-c3cccc(Cl)c3)no2)CC1 | > 48.1 µg/mL |
| Cc1ccc(C(C)NC(=O)c2cc3ccccc3oc2=O)cc1C (stereo not drawn) | 0.8 µg/mL (≈ 2.49 µM) |
| N#Cc1ccc(C(=O)OCC(=O)N2CCCC2)cc1 | > 38.7 µg/mL |

| Structure (SMILES) | solubility kinetic |
| --- | --- |
| COc1ccc(/C=C2\N=C(C)OC2=O)cc1[N+](=O)[O-] | 25.7 µg/mL (≈ 98 µM) |
| CCOC(=O)c1c(NC(=O)C2CCCO2)sc(C)c1C (stereo not drawn) | 30 µg/mL (≈ 101 µM) |
| Cc1ccc2[nH]c(=O)c(COC(=O)C3CCCCC3)cc2c1 | 2.9 µg/mL (≈ 9.69 µM) |
| CCOC(=O)c1c(C)n(Cc2ccccc2)c2ccc(O)cc12 | < 0.7 µg/mL |
| C=C(C)C(=O)OCC(=O)NCc1ccccc1 | 27.2 µg/mL (≈ 117 µM) |
| COCCCNC(=S)Nc1ccc(C)cc1 | > 35.8 µg/mL |
| CN1CCN(S(=O)(=O)c2cc([N+](=O)[O-])ccc2Cl)CC1 | > 48 µg/mL |
| Cc1cc(S(=O)(=O)NCc2ccc(N3CCN(C)CC3)cc2)c(C)s1 | 15.8 µg/mL (≈ 41.6 µM) |
| CCNC(=O)COC(=O)c1sccc1C | > 34.1 µg/mL |
| O=S(=O)(CCN1CCCCC1)Oc1ccc(Cl)cc1Cl | 50.5 µg/mL (≈ 149 µM) |
| Cc1cccc(C)c1OCC(=O)N1CCc2ccccc2C1 | 34.5 µg/mL (≈ 117 µM) |
| Cn1c(O)c(C=NCCN2CCNCC2)c(=O)[nH]c1=O | > 42.2 µg/mL |
| CCn1c(=O)c(C(=O)NC(C)c2ccccc2)c(O)c2ccccc21 (stereo not drawn) | < 0.4 µg/mL |
| Cc1cc(F)ccc1S(=O)(=O)Nc1nc2ccccc2nc1Cl | > 52.8 µg/mL |
| CS(=O)(=O)N(CC(=O)N1CCCC1)c1ccccc1F | > 45.1 µg/mL |
| Cc1cc(C)cc(NC(=O)CCN2C(=O)c3ccccc3C2=O)c1 | 2.5 µg/mL (≈ 7.76 µM) |
| Cc1ccccc1NC(=O)Nc1ccc2c(c1)CCC2 | 0.5 µg/mL (≈ 1.88 µM) |
| O=c1[nH]c2ccc(Cl)cc2c(-c2ccccc2)c1[N+](=O)[O-] | < 0.3 µg/mL |
| O=C(O)CCC(=O)Nc1ccc(Br)cc1C(=O)c1ccc(Cl)cc1 | 44.9 µg/mL (≈ 109 µM) |
| Cc1occc1C(=O)O/N=C(\N)c1ccc(Cl)cc1 | 9.1 µg/mL (≈ 32.7 µM) |
| Cc1ccc2ncnc(Oc3ncccc3[N+](=O)[O-])c2c1 | 34.7 µg/mL (≈ 123 µM) |
| CC(=O)c1ccc(NC(=O)COC(=O)/C=C/c2cccs2)cc1 | 7.3 µg/mL (≈ 22.2 µM) |
| Cc1cccc(NS(=O)(=O)c2ccc3c(c2)NC(=O)CC(=O)N3)c1 | > 51.8 µg/mL |
| Cc1cc(C)n2nc(C(=O)NNC(=O)c3ccccc3)nc2n1 | > 46.5 µg/mL |

| Structure (SMILES) | solubility kinetic |
| --- | --- |
| Cc1nc2ccccc2c2c1C(=O)N(c1cccc(C(=O)O)c1)C2=O | > 49.8 µg/mL |
| COc1ccccc1CCC(=O)N(C)CC(=O)Nc1ccc(F)cc1 | 20.4 µg/mL (≈ 59.2 µM) |
| Fc1cccc(NC(=S)N2CCN(c3ccccn3)CC2)c1 | 5.6 µg/mL (≈ 17.7 µM) |
| O=C(CN1C(=O)c2ccccc2S1(=O)=O)NCc1ccccc1 | > 49.6 µg/mL |
| Cc1noc(C)c1C(=O)N(C)Cc1ccccc1 | 34 µg/mL (≈ 139 µM) |
| CC(C)(C)c1cc(C(=O)N2CCc3ccccc3C2)ccn1 | > 44.2 µg/mL |
| COc1cc(OC)cc(C(=O)N[C@H](C(=O)NC2CCCc3ccccc32)C(C)C)c1 (stereo partly drawn) | 1.9 µg/mL (≈ 4.63 µM) |
| O=S(=O)(/C=C/c1cccc(Br)c1)N1CCOCC1 | 40 µg/mL (≈ 120 µM) |
| CCc1ccccc1NC(=O)NC1CCCCCCC1 | 0.5 µg/mL (≈ 1.82 µM) |
| O=C(Nc1nc2cc3c(cc2s1)OCCO3)c1cccs1 | 0.6 µg/mL (≈ 1.88 µM) |
| CCC(C)(C(=O)NC1CCCC1)N(C)C(=O)c1ccccn1 (stereo not drawn) | > 45.5 µg/mL |
| N#CCCN1CCN(C(=O)c2c(N)no[n+]2[O-])CC1 | > 39.9 µg/mL |
| Cc1nc2ccccn2c1-c1csc(Nc2ccc(C(=O)O)cc2)n1 | 2.5 µg/mL (≈ 7.13 µM) |
| CC(C)CNc1c2c(nc3ccccc13)CCC2.Cl | > 41.5 µg/mL |
| CC(C)(C)C(=O)NC(=S)Nc1cccc(C(=O)O)c1 | > 42.1 µg/mL |
| Cc1ccc(Nc2nc(=O)c3cccnc3s2)c(Br)c1 | 2.4 µg/mL (≈ 6.89 µM) |
| COc1cccc(NC(=O)COC(=O)CCC2CCCC2)c1 | > 45.8 µg/mL |
| Cc1nc(-c2ccc([N+](=O)[O-])cc2)nc2[nH]ccc(=O)c12 | 0.9 µg/mL (≈ 3.19 µM) |
| CC1=Nc2ccccc2N=C(NC(=O)/C=C/C(=O)O)C1c1ccccc1 (stereo not drawn) | > 52.1 µg/mL |
| CN1CCN(c2ccc(CNC(=O)c3cc4ccccc4o3)cc2)CC1 | 49.5 µg/mL (≈ 142 µM) |
| S=c1[nH]c2ccccc2[nH]1 | > 22.5 µg/mL |
| CN(C)c1cc[n+](CC(=O)Nc2cccc([N+](=O)[O-])c2)cc1.[Cl-] | > 50.5 µg/mL |
| O=C(c1ccc2c(c1)OCO2)C1CCCN(CC2CCCCC2)C1 (stereo not drawn) | > 49.4 µg/mL |
| COc1ccc(OCC(O)CNC(=O)Nc2ccc(C(C)(C)C)cc2)cc1 (stereo not drawn) | < 0.4 µg/mL |

| Structure (SMILES) | solubility kinetic |
| --- | --- |
| Cc1ccc(NC(=O)CCOc2ccccc2C)cc1C | 1.7 µg/mL (≈ 6 µM) |
| Cc1cc(NC(=O)C(C)Oc2ccccc2)no1 (stereo not drawn) | > 36.9 µg/mL |
| O=C(Cc1c(F)cccc1Cl)OCC(=O)c1ccc[nH]1 | 26.1 µg/mL (≈ 88.3 µM) |
| CN1CCN(C(=S)C(=O)NCc2ccccc2)CC1 | > 41.6 µg/mL |
| COC(=O)c1ccc(/C=N/OCC(=O)NCc2ccc(F)cc2)cc1 | 10.3 µg/mL (≈ 29.9 µM) |
| O=C(COc1ccccc1F)Nc1ccc2[nH]c(=O)[nH]c2c1 | 4.5 µg/mL (≈ 14.9 µM) |
| O=C(Nc1nonc1-c1ccc(Cl)cc1)c1ccco1 | > 43.5 µg/mL |
| CCC(=O)Nc1ccc(NC(=O)c2oc3ccccc3c2C)cc1 | 1.2 µg/mL (≈ 3.72 µM) |
| Cc1ccc(C)c(NC(=O)c2cc3ccccc3o2)c1 | 10.9 µg/mL (≈ 41.1 µM) |
| CC(=O)c1cccc(NS(=O)(=O)N2CCOCC2)c1 | > 42.6 µg/mL |
| CC(C)(C)C(=O)NC1(C(F)(F)F)NC(=O)N(c2ccccc2F)C1=O (stereo not drawn) | > 54.2 µg/mL |
| O=C(Cc1ccc(Cl)cc1)Nc1ncccn1 | > 37.2 µg/mL |
| Cc1c(CCC(=O)NC2CC2)c(=O)oc2cc(O)ccc12 | > 43.1 µg/mL |
| O=C1CC(=O)N(c2ccccc2)C(=O)N1c1ccccc1 | > 42 µg/mL |
| Cc1ncc([N+](=O)[O-])n1CCN1C(=O)c2ccccc2C1=O | 44.3 µg/mL (≈ 148 µM) |
| Cc1ccc(CC2C(=O)N(c3nc(C)cc(C)n3)C(=O)C2C)cc1 (stereo not drawn) | > 48.5 µg/mL |
| Cl.Fc1ccc(-c2csc(Nc3ccccn3)n2)c(F)c1 | < 0.2 µg/mL |
| Cc1csc(NC(=O)c2ccccc2)n1 | > 32.7 µg/mL |
| O=C(O)C1CCC(CNS(=O)(=O)c2ccccc2)CC1 (stereo not drawn) | > 44.6 µg/mL |
| COc1ccc2c(CC(=O)Nc3nccs3)coc2c1 | 7 µg/mL (≈ 24.3 µM) |
| CN(CCOc1ccccc1)CCOc1ccccc1 | 32.8 µg/mL (≈ 121 µM) |
| COc1cc(/C=C/C(=O)NC(=O)c2ccccc2O)ccc1O | > 47 µg/mL |

From PubChem BioAssay AID1996
